Experimental data published in ChEMBL document CHEMBL2169878 (J Med Chem, 2012).
Calls of active or inactive are those of the source. No cut-off for these calls is given here.

How the values were obtained:
[1] = Apparent volume of distribution in CD1 albino mouse at 50 mg/kg, po; format: ADME, organism-based; parameters: dose 50 mg/kg, route oral; settings: in vivo, read-out: Vc/F
[2] = Clearance in CD1 albino mouse at 50 mg/kg, po; format: ADME, organism-based; parameters: dose 50 mg/kg, route oral; settings: in vivo
[3] = Elimination half life in CD1 albino mouse liver at 50 mg/kg, po; format: ADME, organism-based; parameters: dose 50 mg/kg, route oral; settings: read-out: beta t1/2 (converted)
Heart [4] = test: Cardiotoxicity against Sprague-Dawley rat Langendorff perfused heart assessed as heart rate at 1 uM by electrophysiological analysis (reference value: 236.68 7.83 bpm); format: toxicity, tissue-based
Heart [5] = test: Cardiotoxicity against Sprague-Dawley rat Langendorff perfused heart assessed as heart rate at 10 uM by electrophysiological analysis (reference value: 236.68 7.83 bpm); format: toxicity, tissue-based
Heart [6] = test: Cardiotoxicity against Sprague-Dawley rat Langendorff perfused heart assessed as cycle length time at 1 uM by electrophysiological analysis (reference value: 258.62 8.87 ms); format: toxicity, tissue-based
Salmonella typhimurium [7] = test: Mutagenicity against Salmonella typhimurium TA98 assessed as revertants at 6 uM incubated for 90 mins followed by drug washout measured after 2 days relative to positive control; format: toxicity, organism-based; settings: salmonella enterica subsp. enterica serovar typhimurium, 1.5 h
Salmonella typhimurium [8] = test: Mutagenicity against Salmonella typhimurium TA98 assessed as revertants at 24 uM incubated for 90 mins followed by drug washout measured after 2 days relative to positive control; format: toxicity, organism-based; settings: salmonella enterica subsp. enterica serovar typhimurium, 1.5 h
Salmonella typhimurium [9] = test: Mutagenicity against Salmonella typhimurium TA100 assessed as revertants at 1.5 uM incubated for 90 mins followed by drug washout measured after 2 days relative to positive control; format: toxicity, organism-based; settings: salmonella enterica subsp. enterica serovar typhimurium, 1.5 h
Salmonella typhimurium [10] = test: Mutagenicity against Salmonella typhimurium TA100 assessed as revertants at 12 uM incubated for 90 mins followed by drug washout measured after 2 days relative to positive control; format: toxicity, organism-based; settings: salmonella enterica subsp. enterica serovar typhimurium
Salmonella typhimurium [11] = test: Mutagenicity against Salmonella typhimurium TA100 assessed as revertants at 48 uM incubated for 90 mins followed by drug washout measured after 2 days relative to positive control; format: toxicity, organism-based; settings: salmonella enterica subsp. enterica serovar typhimurium
Heart [12] = test: Cardiotoxicity against Sprague-Dawley rat Langendorff perfused heart assessed as PQ prolongation-induced atrioventricular block at 30 uM by electrophysiological analysis; format: toxicity, tissue-based
Heart [13] = test: Cardiotoxicity against Sprague-Dawley rat Langendorff perfused heart assessed as QTc time interval at 30 uM by electrophysiological analysis (reference value: 145.78 10.53 ms); format: toxicity, tissue-based
Heart [14] = test: Cardiotoxicity against Sprague-Dawley rat Langendorff perfused heart assessed as QTc time interval at 1 uM by electrophysiological analysis (reference value: 145.78 10.53 ms); format: toxicity, tissue-based
Heart [15] = test: Cardiotoxicity against Sprague-Dawley rat Langendorff perfused heart assessed as QTc time interval at 10 uM by electrophysiological analysis (reference value: 145.78 10.53 ms); format: toxicity, tissue-based
Heart [16] = test: Cardiotoxicity against Sprague-Dawley rat Langendorff perfused heart assessed as QT time interval at 10 uM by electrophysiological analysis (reference value: 73.01 4.52 ms); format: toxicity, tissue-based
Heart [17] = test: Cardiotoxicity against Sprague-Dawley rat Langendorff perfused heart assessed as QT time interval at 0.1 uM by electrophysiological analysis (reference value: 73.01 4.52 ms); format: toxicity, tissue-based
Heart [18] = test: Cardiotoxicity against Sprague-Dawley rat Langendorff perfused heart assessed as QT time interval at 1 uM by electrophysiological analysis (reference value: 73.01 4.52 ms); format: toxicity, tissue-based
Heart [19] = test: Cardiotoxicity against Sprague-Dawley rat Langendorff perfused heart assessed as intraventricular conduction time at 1 uM by electrophysiological analysis (reference value: 13.92 0.42 ms); format: toxicity, tissue-based
Heart [20] = test: Cardiotoxicity against Sprague-Dawley rat Langendorff perfused heart assessed as intraventricular conduction time at 0.1 uM by electrophysiological analysis (reference value: 13.92 0.42 ms); format: toxicity, tissue-based
Heart [21] = test: Cardiotoxicity against Sprague-Dawley rat Langendorff perfused heart assessed as cycle length time at 30 uM by electrophysiological analysis (reference value: 258.62 8.87 ms); format: toxicity, tissue-based
Heart [22] = test: Cardiotoxicity against Sprague-Dawley rat Langendorff perfused heart assessed as atrioventricular conduction time at 0.1 uM by electrophysiological analysis (reference value: 42.67 2.29 ms); format: toxicity, tissue-based
Heart [23] = test: Cardiotoxicity against Sprague-Dawley rat Langendorff perfused heart assessed as cycle length time at 10 uM by electrophysiological analysis (reference value: 258.62 8.87 ms); format: toxicity, tissue-based
Heart [24] = test: Cardiotoxicity against Sprague-Dawley rat Langendorff perfused heart assessed as cycle length time at 0.1 uM by electrophysiological analysis (reference value: 258.62 8.87 ms); format: toxicity, tissue-based
Plasmodium falciparum [25] = test: Antiplasmodial activity against chloroquine-sensitive Plasmodium falciparum D10 infected in human RBC after 72 hrs by parasite lactate dehydrogenase assay; format: functional, organism-based; settings: D10, 72 h
Plasmodium falciparum [26] = test: Antiplasmodial activity against chloroquine-sensitive Plasmodium falciparum NF54 infected in human erythrocytes assessed as inhibition of [3H]hypoxanthine incorporation incubated for 48 hrs prior to [3H]hypoxanthine addition measured after 48 hrs by liquid scintillation counting; format: functional, organism-based
Plasmodium falciparum [27] = test: Antiplasmodial activity against chloroquine-resistant Plasmodium falciparum K1 infected in human erythrocytes assessed as inhibition of [3H]hypoxanthine incorporation incubated for 48 hrs prior to [3H]hypoxanthine addition measured after 48 hrs by liquid scintillation counting; format: functional, organism-based
Plasmodium berghei [28] = test: Antimalarial activity against Plasmodium berghei ANKA expressing GFP infected in mouse assessed as reduction in parasitemia at 30 mg/kg, po administered 24 hrs post-infection measured 48 hrs post-dosing by flow cytometric analysis; format: functional; parameters: scale not given: the % may be the effect or the level left
Plasmodium berghei [29] = test: Antimalarial activity against Plasmodium berghei ANKA expressing GFP infected in mouse assessed as reduction in parasitemia at 50 mg/kg, po administered QD for 3 days measured 24 hrs post-final dosing by flow cytometric analysis; format: functional; parameters: scale not given: the % may be the effect or the level left
Plasmodium berghei [30] = test: Antimalarial activity against Plasmodium berghei ANKA expressing GFP infected in mouse assessed as mean survival days at 100 mg/kg, po administered 24 hrs post-infection (reference value: 6 to 7 days); format: functional
Plasmodium berghei [31] = test: Antimalarial activity against Plasmodium berghei ANKA expressing GFP infected in mouse assessed as mean survival days at 30 mg/kg, po administered 24 hrs post-infection (reference value: 6 to 7 days); format: functional
Plasmodium berghei [32] = test: Antimalarial activity against Plasmodium berghei ANKA expressing GFP infected in mouse assessed as mean survival days at 30 mg/kg, po administered QD for 3 days (reference value: 6 to 7 days); format: functional
Plasmodium berghei [33] = test: Antimalarial activity against Plasmodium berghei ANKA expressing GFP infected in mouse assessed as cure from infection at 100 mg/kg, po administered 24 hrs post-infection measured on day 30; format: functional, organism-based; parameters: dose 100 mg/kg
Plasmodium berghei [34] = test: Antimalarial activity against Plasmodium berghei ANKA expressing GFP infected in mouse assessed as cure from infection at 50 mg/kg, po administered QD for 3 days measured on day 30; format: functional, organism-based; parameters: dose 50 mg/kg
[35] = molecular target: Chloroquine resistance transporter (Plasmodium falciparum, UniProt Q9N623); test: Inhibition of chloroquine-resistant Plasmodium falciparum Dd2 CRT expressed in Xenopus laevis oocyte assessed as inhibition of [3H]chloroquine uptake measured from 1 to 2 hrs
Sequence of Chloroquine resistance transporter (Q9N623 whole entry, looked up): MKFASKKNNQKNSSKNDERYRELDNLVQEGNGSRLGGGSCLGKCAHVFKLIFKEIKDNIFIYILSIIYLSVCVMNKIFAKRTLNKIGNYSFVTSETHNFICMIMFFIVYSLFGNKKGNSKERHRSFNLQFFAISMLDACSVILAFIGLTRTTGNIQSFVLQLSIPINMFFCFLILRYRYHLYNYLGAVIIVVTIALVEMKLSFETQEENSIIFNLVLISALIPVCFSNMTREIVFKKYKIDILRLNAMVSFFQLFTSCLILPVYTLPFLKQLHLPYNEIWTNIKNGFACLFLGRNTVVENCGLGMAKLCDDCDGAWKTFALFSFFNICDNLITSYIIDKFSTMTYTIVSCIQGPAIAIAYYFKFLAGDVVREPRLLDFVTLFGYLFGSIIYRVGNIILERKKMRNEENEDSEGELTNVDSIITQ

[36] = Cytotoxicity against mouse NIH3T3 cells after 24 hrs by neutral red dye uptake assay; format: cell-based; settings: read-out: TC50
[37] = Cytotoxicity against human HepG2 cells after 24 hrs by neutral red dye uptake assay; format: cell-based; settings: read-out: TC50
Salmonella typhimurium [38] = test: Mutagenicity against Salmonella typhimurium TA98 assessed as revertants at 1.5 uM incubated for 90 mins followed by drug washout measured after 2 days relative to positive control; format: toxicity, organism-based; settings: salmonella enterica subsp. enterica serovar typhimurium, 1.5 h

In the case of Clc1ccc(C(Nc2ccnc3cc(Cl)ccc23)c2ccc(CN3CCNCC3)cc2)cc1 (racemic), the Vd/F [1] is reported as 153 L/kg, the CL/F [2] is reported as 82 mL/min/kg and the half-life [3] is reported as 29 h. For the same compound, the Activity (Heart [4]) was 233.54 bpm, the Activity (Heart [5]) was 216.05 bpm and the Time (Heart [6]) was 260.13 ms. The Activity (Salmonella typhimurium [7]) was 6%, the Activity (Salmonella typhimurium [8]) was 4% and the Activity (Salmonella typhimurium [9]) was 19%. The Activity (Salmonella typhimurium [10]) was 17%, the Activity (Salmonella typhimurium [11]) was 28% and the Activity (Heart [12]) was “Toxic”. For the same compound, the Time (Heart [13]) was 168.83 ms, the Time (Heart [14]) was 151.17 ms and the Time (Heart [15]) was 177.33 ms. The Time (Heart [16]) was 94.5 ms, the Time (Heart [17]) was 74 ms and the Time (Heart [18]) was 76.5 ms. For the same compound, the Time (Heart [19]) was 14.18 ms, the Time (Heart [20]) was 14 ms and the Time (Heart [21]) was 317 ms. It also gave a Time (Heart [22]) of 42.53 ms, a Time (Heart [23]) of 294 ms and a Time (Heart [24]) of 256.97 ms. The IC50 (Plasmodium falciparum [25]) was 62 nM, the IC50 (Plasmodium falciparum [26]) was 17 nM and the IC50 (Plasmodium falciparum [27]) was 22 nM. It also gave an Activity (Plasmodium berghei [28]) of 99.7%, an Activity (Plasmodium berghei [29]) of 99.8% and an MSD (Plasmodium berghei [30]) of 28.8 days. For the same compound, the MSD (Plasmodium berghei [31]) was 15.8 days, the MSD (Plasmodium berghei [32]) was 29 days and the Activity (Plasmodium berghei [33]) was “inactive”. For the same compound, the Activity (Plasmodium berghei [34]) was “Active”, the IC50 [35] was 10300 nM and the CC50 at 24 h [36] was 1800 nM. The CC50 at 24 h [37] was 1800 nM and the Activity (Salmonella typhimurium [38]) was 2%.
